Read-outs that look alike come from different tables or passages of the source.
Legend:
[1] = system: Zika virus Malaysia P 6-740; test: CPE reduction assay (neutral red uptake); assay type: cell-based
Description: (§1) The compounds were administered at a range of concentrations up to 100 μg/ml. Compounds were prepared in MEM just prior to testing. Inhibition of virus replication was determined by microscopic examination of the infected cells for cytopathic effect, increase of neutral red (NR) dye uptake (colorimetric determination), and virus yield reduction. Uninfected cells treated with a compound were assayed as above for cytotoxicity control. The EC50, EC90 and SI (selectivity index) values were determined in Vero76, Huh7 and RD cells as analyzed by the neutral red uptake dye assay and virus yield reduction assays. The results are presented from 3 or more independent experiments (standard deviations not shown. Three Zika virus strains were used in this in vitro study, Malaysia strain P 6-740, Uganda strain MR-766 and Puerto Rico strain PRVABC-59. Cells were maintained under standard conditions.

Zika virus Uganda MR 766 = test: CPE reduction assay (neutral red uptake); assay type: cell-based
Description: as §1

[2] = system: Zika virus Puerto Rico PRVABC59; test: CPE reduction assay (neutral red uptake); assay type: cell-based; conditions: Puerto Rico PRVABC59
Description: as §1

Zika virus PRVABC-59 = conditions: for plasma viremia: n=4; for samples with Zika virus below the limit of quantification: FIG. 15D
[3] = system: Zika virus (Malaysia, strain P 6-740); test: Murine Zika virus model, treatment begun 4 h before infection (Example 3); conditions: for relative virus levels vs placebo: FIG. 4; for weight change in grams between days 7 and 13 post-infection: FIG. 3B
Description: The agents used in this experiment were compound A (the compound of formula I, where A is NH2 and B is H as the HCL salt) and ribavirin. Compound A was administered IM at 150 mg/kg/day and 300 mg/kg/day, each in a volume of 0.05 ml saline and ribavirin was administered IP at 75 mg/kg/day and 50 mg/kg/day, each in a volume of 0.1 ml saline. IM or IP administration of the daily dose was accomplished in two IM/IP injections of one-half the daily dose each. Mice were administered the first dose of Compound A and ribavirin 4 hours prior to infection with Zika virus and continued the treatment for 8 days post-infection.
In this experiment, Zika virus (Malaysia, strain P 6-740) was administered at a challenge dose of 100 CCID50 (10^3 pfu) per mouse via subcutaneous injection in a 0.1 ml volume.
Mice were monitored for survival 28 days post-virus challenge. Weight change for individual mice were taken on day 0 and every other day through the end of the experiments. Mice were observed daily for signs of disease including conjunctivitis, hunching, and limb weakness or paralysis.
For Zika virus infection and antiviral treatment studies, mice were randomly assigned to groups of 10 animals each. A 10^-3 dilution (10^4.0 pfu/mL) of the virus was prepared in MEM. Mice were challenged s.c. with 0.1 mL of the diluted virus (˜10^3.0 pfu/animal). All compound dosages were based on an average mouse weight of 22 g. Compounds were prepared in sterile saline less than 18 hours prior to initial administration in mice and stored at 4° C. for the duration of the study. Compound A was administered i.m., twice daily (bid) at 300 or 150 mg/kg/d. Ribavirin was given i.p., bid at 75 or 50 mg/kg/d. Treatments began 4 hours prior to virus challenge and continued for 8 days. The identity of the treatment groups was blinded to the technician administering treatments. Mortality was observed twice daily for 28 days, and the weight of each mouse was recorded on day 0 and then every other day from 1-19 days post-virus infection (dpi). Mice were humanely euthanized if they could no longer right themselves or were unresponsive to stimuli.
Fifty to 100 mg of freshly isolated tissue was ground with a pestle in 1 mL TRI Reagent (Sigma-Aldrich, St. Louis, MO) and total RNA was extracted. For the extraction of viral RNA from liquid samples, QlAamp Viral RNA Mini Spin kit was used according to the manufactures instructions (Qiagen, Valencia, CA). Extracted RNA was eluted with nuclease-free water and was amplified by a quantitative real-time RT-PCR using the Logix Smart Zika Test developed by Co-Diagnostics, Inc. (Bountiful, UT). Five μL of the master mix containing a set of primers and Rapid Probe, labeled with a FAM fluorophore and DABCYL quencher, was mixed with 2-5 μL of RNA and an appropriate volume of water for a final reaction volume of 10 μl. RNA was first reverse transcribed for 10 minutes at 55° C., followed by strand separation by heating to 95° C. for 20 seconds. The PCR reaction consisted of 40 cycles at 95° C. for 1 second and 55° C. for 20 seconds. A standard curve was generated with a synthetic RNA spanning the region of amplification and it was used to calculate the number of genome equivalents of the unknown samples.

## Cl.Nc1ncnc2c([C@@H]3N[C@H](CO)[C@@H](O)[C@H]3O)c[nH]c12 [Compound A]
[1]; Huh-7 cells
  CPE red. assay EC50: 5.5 ± 0.1 µg/mL
[1]; Vero76 cells
  CPE red. assay EC50: 11.5 ± 4.4 µg/mL
Zika virus Uganda MR 766; Huh-7 cells
  CPE red. assay EC50: 5.7 ± 0.9 µg/mL
Zika virus Uganda MR 766; RD cells
  CPE red. assay EC50: 4.4 ± 1.3 µg/mL
Zika virus Uganda MR 766; Vero76 cells
  CPE red. assay EC50: 11.7 ± 4.7 µg/mL
[2]; Huh-7 cells
  CPE red. assay EC50: 4.7 ± 0.6 µg/mL
[2]; RD cells
  CPE red. assay EC50: 4.7 ± 2.2 µg/mL
[2]; Vero76 cells
  CPE red. assay EC50: 3.8 ± 2.5 µg/mL
Zika virus PRVABC-59; Group 1: 200 mg/kg day 0, 25 mg/kg b.i.d. days 1-9, IM
  plasma viremia: did not develop detectable viremia
Zika virus PRVABC-59; Group 2: 150 mg/kg day 0, 19 mg/kg b.i.d. days 1-9, IM
  plasma viremia: only one animal from this group showing slight viremia
Zika virus PRVABC-59; Group 3: 100 mg/kg day 0, 13 mg/kg b.i.d. days 1-9, IM
  plasma viremia: only two animals from this group showing slight viremia
Zika virus PRVABC-59; Group 4: 50 mg/kg day 0, 6 mg/kg b.i.d. days 1-9, IM
  plasma viremia: viremic between days 4 to 7 post-infection
Zika virus PRVABC-59; IM, Groups 1 to 4
  tolerability: well-tolerated
Zika virus PRVABC-59; total dose 492 mg/kg (Group 2)
  samples with Zika virus below the limit of quantification: 3 out of 4
Zika virus PRVABC-59; total dose 650 mg/kg (group 1)
  samples with Zika virus below the limit of quantification: 4 out of 4
Zika virus PRVABC-59; total doses greater than 334 mg/kg (Groups 1 to 3), p <0.0001
  maximum Zika virus titers vs control: decreased dramatically
[3]; 150 mg/kg/day IM (group 3)
  relative virus levels vs placebo: decreased viral levels in a statistically significant manner
[3]; 150 mg/kg/day IM bid x 8 days, begun -4 h (group 3)
  survival: all died by day 27 post-infection
[3]; 150 mg/kg/day IM bid x 8 days, begun -4 h (group 3), p<0.001
  mortality curve vs placebo: delayed the mortality curve
[3]; 150 mg/kg/day IM, Zika infected (group 3), FIG. 3A
  percent weight change: modest weight reduction starting around day 15 post-infection
[3]; 150 mg/kg/day IM
  weight change in grams between days 7 and 13 post-infection: weight change similar to that seen in normal controls
[3]; 300 mg/kg/day IM (group 1)
  morbidity in surviving mice 28 days post-infection: no morbidity was observed
  weight change in grams between days 7 and 13 post-infection: weight change similar to that seen in normal controls
  relative virus levels vs placebo: decreased viral levels in a statistically significant manner
[3]; 300 mg/kg/day IM bid x 8 days, begun -4 h (group 1), p<0.0001 vs placebo
  mice survived to day 28 post-infection: 7/8
[3]; 300 mg/kg/day IM bid x 8 days, sham infection (group 2)
  morbidity or mortality at day 28 in sham-infected mice: No morbidity or mortality
[3]; 300 mg/kg/day IM, Zika infected (group 1), FIG. 3A
  percent weight change: weight change similar to that seen in normal controls
[3]; 300 mg/kg/day IM, sham infection (group 2), FIG. 3A
  percent weight change in sham-infected mice: weight change similar to that seen in normal controls
